25 compounds from US8546377B2 (AbbVie Inc., priority 2009, dated 2013) can be followed below.

Read-outs that look alike come from different tables or passages of the source.

Assay [1] concerns the target T1, human serotonin 5-HT2c receptor (Homo sapiens, UniProt P28335).
T1 construct: expressed in transfected cells; host or cells: CHO cells (membrane homogenate)
T1 sequence (P28335 33-458): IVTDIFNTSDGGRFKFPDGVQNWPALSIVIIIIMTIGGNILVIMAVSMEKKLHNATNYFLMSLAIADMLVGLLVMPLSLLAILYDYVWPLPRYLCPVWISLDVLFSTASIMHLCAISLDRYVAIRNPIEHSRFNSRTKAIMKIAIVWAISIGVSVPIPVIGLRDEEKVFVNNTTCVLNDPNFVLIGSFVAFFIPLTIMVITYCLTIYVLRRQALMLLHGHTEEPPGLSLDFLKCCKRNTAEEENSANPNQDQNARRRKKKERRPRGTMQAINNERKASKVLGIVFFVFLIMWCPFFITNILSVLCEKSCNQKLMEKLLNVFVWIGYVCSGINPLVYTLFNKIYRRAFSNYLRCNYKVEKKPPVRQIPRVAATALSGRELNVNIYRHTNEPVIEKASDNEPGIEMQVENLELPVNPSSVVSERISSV
Description: Human 5-HT2C receptor radioligand binding assay (agonist site, [125I](±)DOI). The conditions noted are these: membranes of transfected CHO cells, 0.2 nM [125I](±)DOI, 15 minutes at 37° C. On the procedure: To determine the effectiveness of compounds having a formula (I), these compounds can be evaluated in a radioligand binding assay for the agonist site of the human serotonin 5-HT2c receptor or in vitro models of cellular function.
(i) Human 5-HT2C Receptor Radioligand Binding Assay
Affinity of compounds for the agonist site of the 5-HT2c receptor in transfected CHO cells was determined in a radioligand binding assay essentially as described by Bryant, H. U., et al., Life Sciences (1996) 59(15), 1259-1268.

Assay [2] addresses T2, 5HT2B receptors (Homo sapiens, UniProt P41595).
T2 construct: expressed in transfected cells; host or cells: CHO-K1 cells
Put plainly: Human 5-HT2B functional assay in CHO-K1 cells (calcium flux, FLIPR). The assay is classed as cell-based. The procedure, abridged:
(§1)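 Frozen CHO-K1 cells over-expressing receptor, serum-starved overnight, loaded with Ca4 dye plus 2.5 mM probenecid for 60 min at room temperature. FLIPR fluorescence (ex 480/em 530 nm, 25° C) recorded 3 min after compound addition; 6-point 1:10 series from 10 μM, 0.2% DMSO. Response normalized to serotonin, 4-parameter fit gives EC50; Emax as % of serotonin.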

Assay [3] concerns the target T3, 5HT2C receptors (Homo sapiens, UniProt P28335).
T3 sequence (P28335 33-458): T1 sequence (P28335 33-458)
Put plainly: Human 5-HT2C functional assay in CHO-K1 cells (calcium flux, FLIPR). Further details: expressed in transfected cells; host or cells: CHO-K1 cells. The assay is classed as cell-based. The conditions noted are these: for Emax: percentage relative to the effect of serotonin. In short, it runs like this: as §1

The mark [4] stands for this setting: CHO-K1 cells over-expressing 5HT2B, calcium flux, read-out: EC50 (μM), 5-HT2B Agonist Activity.
The mark [5] stands for this setting: CHO-K1 cells, percentage relative to the effect of serotonin, read-out: Emax (%), 5-HT2B Agonist Activity.
Where [6] appears, read: CHO-K1 cells over-expressing 5HT2C, calcium flux, read-out: EC50 (μM), 5-HT2c Agonist Activity.
[7] abbreviates: CHO-K1 cells, read-out: Emax (%), 5-HT2c Agonist Activity.
Setting [8] is: CHO-K1, read-out: Emax (%), 5-HT2c Agonist Activity, CHO-K1 cells.
Where [9] appears, read: CHO-K1, read-out: Emax (%), 5-HT2B Agonist Activity.

T2 sequence (P41595 whole entry): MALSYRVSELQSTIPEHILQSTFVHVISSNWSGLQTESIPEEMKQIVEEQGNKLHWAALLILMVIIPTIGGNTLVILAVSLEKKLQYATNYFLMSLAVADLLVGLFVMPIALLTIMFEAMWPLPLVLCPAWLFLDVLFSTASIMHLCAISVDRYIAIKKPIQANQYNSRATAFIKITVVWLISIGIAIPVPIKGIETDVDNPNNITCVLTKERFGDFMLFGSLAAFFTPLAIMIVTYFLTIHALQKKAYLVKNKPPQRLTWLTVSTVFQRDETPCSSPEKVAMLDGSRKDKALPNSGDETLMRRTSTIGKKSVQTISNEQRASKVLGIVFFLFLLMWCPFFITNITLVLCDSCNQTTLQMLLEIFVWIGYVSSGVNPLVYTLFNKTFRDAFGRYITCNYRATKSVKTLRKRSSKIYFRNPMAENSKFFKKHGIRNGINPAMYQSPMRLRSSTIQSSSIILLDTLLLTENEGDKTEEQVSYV

In assay [1], `O=C1CC2CNCCN2c2cc(/C=C/c3cccc(F)c3)ccc2N1` (stereo not drawn) [Example 9, 10-[(E)-2-(3-fluorophenyl)vinyl]-1,2,3,4,4a,5-hexahydropyrazino[1,2-a][1,5]benzodiazepin-6(7H)-one] displayed a Ki of 0.0032 µM.
As to `COc1ccccc1-c1ccc2c(c1)N1CCNC[C@@H]1CCO2` [Example 192, (4aS)-10-(2-methoxyphenyl)-2,3,4,4a,5,6-hexahydro-1H-pyrazino[2,1-d][1,5]benzoxazepine], the EC50 amounted to 1 µM in assay [2] (setting [4]) and 0.03 µM in assay [3] (setting [6]). The Emax in assay [2] (setting [5]) was 10%; in assay [3] (setting [7]), > 120%.
In the case of `O=C1C[C@H]2CNCCN2c2cc(OC(F)F)ccc2N1` [Example 131, (4aS)-10-(difluoromethoxy)-1,2,3,4,4a,5-hexahydropyrazino[1,2-a][1,5]benzodiazepin-6(7H)-one], the EC50 in assay [2] (setting [4]) stood at 0.08 µM; in assay [3] (setting [6]), 0.04 µM. The Emax is 20% in assay [2] (setting [5]) and 110% in assay [3] (setting [7]).
On to `CN1CCN2c3cc(Cl)ccc3NC(=O)C[C@H]2C1` [Example 84, (4aS)-10-chloro-3-methyl-1,2,3,4,4a,5-hexahydropyrazino[1,2-a][1,5]benzodiazepin-6(7H)-one], for which the EC50 in assay [2] is > 10 µM; in assay [3] it was 0.067 µM. In addition, the maximal response (Emax) in assay [3] (setting [8]) worked out at 90%.
As for `Clc1cc2c(cc1Cl)N1CCNC[C@@H]1CCO2` [Example 214, (4aS)-9,10-dichloro-2,3,4,4a,5,6-hexahydro-1H-pyrazino[2,1-d][1,5]benzoxazepine], the EC50 is 0.03 µM in assay [2] and 0.002 µM in assay [3]. Further, the Emax was 60% in assay [2] (setting [9]) and > 120% in assay [3] (setting [8]).
As for `CC(C)=Cc1ccc2c(c1)N1CCNC[C@@H]1CCO2` [Example 208, (4aS)-10-(2-methylprop-1-en-1-yl)-2,3,4,4a,5,6-hexahydro-1H-pyrazino[2,1-d][1,5]benzoxazepine], the values for the EC50 in assay [2] (setting [4]) and in assay [3] (setting [6]) were 0.1 µM and 0.001 µM, respectively. Further, the values for the Emax in assay [2] (setting [5]) and in assay [3] (setting [7]) were 50% and > 120%, respectively.
Turning to `Cc1ccc2c(c1)OCC[C@@H]1CNCCN21` [Example 259, (4aR)-9-methyl-2,3,4,4a,5,6-hexahydro-1H-pyrazino[2,1-d][1,5]benzoxazepine], the EC50 was 0.1 µM in assay [2] and 0.004 µM in assay [3]. For the same compound, the Emax in assay [2] (setting [9]) amounted to 70%; in assay [3] (setting [8]), 100%.
Consider `O=C1CC2CNCCN2c2cc(COc3ccc(F)cc3)ccc2N1` (stereo not drawn) [Example 115, 10-[(4-fluorophenoxy)methyl]-1,2,3,4,4a,5-hexahydropyrazino[1,2-a][1,5]benzodiazepin-6(7H)-one], for which the EC50 in assay [2] (setting [4]) is > 10 µM; in assay [3] (setting [6]) it was 0.2 µM. The Emax in assay [3] (setting [7]) was > 120%.
For the compound `COc1ccc2c(c1)OCC[C@H]1CN(C)CCN21` [Example 232, (4aS)-9-methoxy-3-methyl-2,3,4,4a,5,6-hexahydro-1H-pyrazino[2,1-d][1,5]benzoxazepine], the values for the EC50 in assay [2] and in assay [3] were > 10 µM and 0.05 µM, respectively. In addition, in assay [3] (setting [8]), the Emax came to 50%.
`CS(=O)(=O)c1cccc(-c2cccc3c2OCC[C@H]2CNCCN32)c1` [Example 239, (4aS)-8-[3-(methylsulfonyl)phenyl]-2,3,4,4a,5,6-hexahydro-1H-pyrazino[2,1-d][1,5]benzoxazepine]: the values for the EC50 in assay [2] (setting [4]) and in assay [3] (setting [6]) were > 10 µM and 0.04 µM, respectively. In addition, in assay [3] (setting [7]), the Emax was 105%.
`c1cc(-c2ccncc2)c2c(c1)N1CCNC[C@@H]1CCO2` [Example 247, (4aS)-8-(pyridin-4-yl)-2,3,4,4a,5,6-hexahydro-1H-pyrazino[2,1-d][1,5]benzoxazepine]: the EC50 in assay [2] was > 10 µM; in assay [3] it was 0.007 µM. Moreover, in assay [3] (setting [8]), the Emax amounted to 85%.
Regarding `CN1CCN2c3ccccc3OCC[C@@H]2C1` [Example 268, (4aR)-3-methyl-2,3,4,4a,5,6-hexahydro-1H-pyrazino[2,1-d][1,5]benzoxazepine], the results for the EC50 in assay [2] and in assay [3] were 0.2 µM and 0.01 µM, respectively. The Emax in assay [2] (setting [9]) was determined as 50%; in assay [3] (setting [8]) it was 95%.
In the case of `COc1cccc2c1OCC[C@H]1CNCCN21` [Example 241, (4aS)-8-methoxy-2,3,4,4a,5,6-hexahydro-1H-pyrazino[2,1-d][1,5]benzoxazepine], the EC50 was > 10 µM in assay [2] and 0.02 µM in assay [3]. Besides, the Emax in assay [3] (setting [8]) was determined as 90%.
Take `Cc1ccc(-c2ccc3c(c2)N2CCNC[C@@H]2CCO3)cc1` [Example 191, (4aS)-10-(4-methylphenyl)-2,3,4,4a,5,6-hexahydro-1H-pyrazino[2,1-d][1,5]benzoxazepine]: the EC50 was > 10 µM in assay [2] (setting [4]) and 0.4 µM in assay [3] (setting [6]). In assay [3] (setting [7]), the maximum response (Emax) is > 120%.
Consider `Cc1c(F)ccc2c1OCC[C@H]1CNCCN21` [Example 244], for which the EC50 in assay [2] turned out to be 0.03 µM; in assay [3] it was 0.0004 µM. The Emax in assay [2] (setting [9]) stood at 15%; in assay [3] (setting [8]), 95%.
Taken in the same sequence, the figures for `[2H]c1cc2c(cc1[2H])N1CCNC[C@@H]1CCO2` [Example 267, (4aS)-(9,10-^2H2)-2,3,4,4a,5,6-hexahydro-1H-pyrazino[2,1-d][1,5]benzoxazepine] were 0.2 µM, 0.005 µM, 20% and 90%.
Regarding `Clc1cccc2c1OCC[C@H]1CNCCN21` [Example 138, (4aS)-8-chloro-2,3,4,4a,5,6-hexahydro-1H-pyrazino[2,1-d][1,5]benzoxazepine], the results for the EC50 in assay [2] and in assay [3] were > 10 µM and 0.0007 µM, respectively. In addition, the Emax in assay [3] (setting [8]) was > 120%.
Consider `CC(C)N1CCN2c3ccccc3OCC[C@H]2C1` [Example 264, (4aS)-3-isopropyl-2,3,4,4a,5,6-hexahydro-1H-pyrazino[2,1-d][1,5]benzoxazepine], for which the EC50 in assay [2] (setting [4]) is > 10 µM; in assay [3] (setting [6]), 0.9 µM. The Emax in assay [3] (setting [8]) was determined as 50%.
With `O=C1C[C@H]2CNCCN2c2cc(OCC3CC3)ccc2N1` [Example 170, (4aS)-10-(cyclopropylmethoxy)-1,2,3,4,4a,5-hexahydropyrazino[1,2-a][1,5]benzodiazepin-6(7H)-one], the EC50 is > 10 µM in assay [2] (setting [4]) and 0.02 µM in assay [3] (setting [6]). The Emax in assay [3] (setting [7]) is > 120%.
As for `CN1C(=O)CC2CNCCN2c2cc(CCc3ccccc3)ccc21` (stereo not drawn) [Example 151, 7-methyl-10-(2-phenylethyl)-1,2,3,4,4a,5-hexahydropyrazino[1,2-a][1,5]benzodiazepin-6(7H)-one], the results for the EC50 in assay [2] (setting [4]) and in assay [3] (setting [6]) were 5 µM and 0.07 µM, respectively. Further, the Emax in assay [2] (setting [5]) was 30%; in assay [3] (setting [7]), 110%.
Regarding `Cc1cccc(-c2ccc3c(c2)N2CCNC[C@@H]2CCO3)c1` [Example 190, (4aS)-10-(3-methylphenyl)-2,3,4,4a,5,6-hexahydro-1H-pyrazino[2,1-d][1,5]benzoxazepine], the EC50 in assay [2] (setting [4]) was > 10 µM; in assay [3] (setting [6]), 0.02 µM. For the same compound, the Emax in assay [3] (setting [7]) is > 120%.
`Clc1ccc2c(c1)N1CCN(Cc3ccccc3)C[C@@H]1CCO2` [Example 186, (4aS)-3-benzyl-10-chloro-2,3,4,4a,5,6-hexahydro-1H-pyrazino[2,1-d][1,5]-benzoxazepine]: the EC50 in assay [2] (setting [4]) is > 10 µM; in assay [3] (setting [6]), 0.8 µM. In assay [3] (setting [7]), the Emax was > 120%.
Regarding `Cc1ccc2c(c1)OCC[C@H]1CNCCN21` [Example 133, (4aS)-9-methyl-2,3,4,4a,5,6-hexahydro-1H-pyrazino[2,1-d][1,5]benzoxazepine], the EC50 is > 10 µM in assay [2] and 0.01 µM in assay [3]. Moreover, the Emax in assay [3] (setting [8]) stood at 100%.
With `[2H]c1ccc2c(c1)OCC[C@H]1CNCCN21` [Example 263, (4aS)-(9-^2H)-2,3,4,4a,5,6-hexahydro-1H-pyrazino[2,1-d][1,5]benzoxazepine], the EC50 in assay [2] was found to be 0.09 µM; in assay [3], 0.003 µM. The Emax in assay [2] (setting [9]) is 15%; in assay [3] (setting [8]) it was 95%.
Regarding `c1ccc(CCc2ccc3c(c2)N2CCNC[C@@H]2CCO3)cc1` [Example 212, (4aS)-10-(2-phenylethyl)-2,3,4,4a,5,6-hexahydro-1H-pyrazino[2,1-d][1,5]benzoxazepine], the results for the EC50 in assay [2] (setting [4]) and in assay [3] (setting [6]) were 0.4 µM and 0.007 µM, respectively. The maximal effect (Emax) in assay [2] (setting [5]) was found to be 45%; in assay [3] (setting [7]), 80%.
